Experimental data as given in patent US20060095978A1, “Screening assay” (priority 2002, published 2006).

Experiments:
CD69 on CD8+ T cells = experiment: CD69 expression on CD8+ T cells of antigen-stimulated OT-1 mice (FACS); assay type: in vivo, mouse
Protocol: (§1) OT-1 mice are obtained as described in Hogquist et al., 1994, Cell 76(1)17-27. The animals are maintained in Microvent positive air supply cages (22±1° C., 55±5% relative humidity, 50-70 changes of fresh air/hour and 12 hours day and night cycle) with sawdust bedding. Standard laboratory mouse chow (SNIFF, Soest, Germany) and drinking water is given ad libitum. Groups of two to four, 8-10 weeks old, male or female OT-1 mice weighing between 20-25 g are used for the experiments described. The animals are grouped (4 per group) in type II Macrolon cages one day before the experiment.
Doses of 3, 0.3 and 0.1 mg/kg b.w. are administered orally by gavage 2 hours before antigen challenge. […]
(§2) Single cell suspensions of spleen or blood containing approximately 1×10^6 cells in 100 μl of FACS buffer are used for staining. […] Lymphocytes are gated in the FSC/SSC dot blot according to size and granularity and further analyzed for expression of CD8, TCR Vβ5 expression and activation markers. Data are presented as original dot blots or are calculated from dot blots as percentage of cells positively stained for TCR or activation markers within the CD8^+ population.
Data calculated from FACS analysis or serum cytokine determination are given as individual values for each animal. Data are analysed for normal distribution and then the ANOVA test for multiple comparison is applied using SigmaStat software. […]

IL-2 = experiment: Serum IL-2 in OVA257-264 stimulated OT-1 mice (sandwich ELISA); assay type: in vivo, mouse
Protocol: as §1
(§3) Cells are stimulated as described above and supernatant is harvested after 48 hours. The quantity of cytokines released by T cells into the culture medium after antigen stimulation is assayed by conventional sandwich ELISA. […] Specifically bound cytokines are quantified using biotinylated secondary antibodies JES6-5H4 (anti-IL-2), BVD6-24G2 (anti-IL-4), TRFK4 (anti-IL-5), SXC-1 (anti-IL-10) and XMG1.2 (anti-IFN-γ) followed by extravidin peroxidase and TMB substrate (both from Sigma). Absorption is measured at 450 and 690 nm on a Spectramax 340PC reader (Molecular Devices, Sunnyvale, Calif.). All cytokines are quantified with standard curves obtained with known amounts of recombinant mouse cytokines using SoftMax 3 software. […]

IFN-γ [1] = experiment: Serum IFN-γ in OVA257-264 stimulated OT-1 mice (sandwich ELISA); assay type: in vivo, mouse
Protocol: as §1, §3

CD25 on CD8+ T cells = experiment: CD25 expression on CD8+ T cells of peptide-stimulated OT-1 mice (FACS); assay type: in vivo, mouse; conditions: 100 μg OVA257-264, after 7 hours
Protocol: The animals are maintained in Microvent positive air supply cages (22±1° C., 55±5% relative humidity, 50-70 changes of fresh air/hour and 12 hours day and night cycle) with sawdust bedding.

CD8+ T cells = experiment: Frequency of CD8+ T cells in blood and spleen of OT-1 mice (FACS); assay type: in vivo, mouse
Protocol: as §1
Doses of 3, 0.3 and 0.1 mg/kg b.w. are administered orally by gavage 2 hours before antigen challenge. The compound is diluted with solvent (Neoral Placebo) and given in a volume of 0.2 ml. Animals in the control group receive the solvent only. Ovalbumin-derived peptide (OVA257-264, […], >80% purity, piChemie R&D, Graz, Austria) or whole OVA (Sigma) are used as antigens. Both are diluted in PBS and administerd i.p. in a final volume of 0.2 ml. At various time points after OVA257-264 peptide injection about 200 μl blood is withdrawn from the retro-orbital plexus under ether anesthesia. In order to avoid coagulation, blood is collected in EDTA-containing buffer. Mice are killed by cervical dislocation and the spleen is excised. Single cell suspension are prepared in PBS by gently pressing the spleen through a 100 μm cell strainer. Finally, blood and spleen cells are washed with FACS buffer (PBS, 1 g/l EDTA, 1 g/l NaN3, 10% FCS; pH 7.1) and taken up in the same buffer for FACS analysis.
as §2

IFN-γ [2] = experiment: Serum IFN-γ in OVA/OVA323-339 stimulated DO11.10 mice (ELISA); assay type: in vivo, mouse; conditions: for IFN-γ level in pg/ml serum after day 0: 3 hours after first i.p. injection; for IFN-γ level in pg/ml serum after day 14: 3 hours after second i.p. injection
Protocol: Groups of six, 8-10 weeks old, male or female DO11.10 mice weighing between 20-22 g are obtained as described in Murphy K. M. et al. 1990, Science 250:1720-1722. The animals are maintained in Microvent positive air supply cages (22±1° C., 55±5% relative humidity, 50-70 changes of fresh air/hour and 12 hours day and night cycle) with sawdust bedding. Standard laboratory mouse chow (SNIFF, Soest, Germany) and drinking water is given ad libidum. The animals are used for the study after an adaptation period of 10-14 days and grouped (6 per group) in type II Macrolon cages one day before the experiment.
Groups of six DO11.10 mice are i.p. injected with 10 μg of ovalbumin (OVA, Sigma, St. Louis, USA) absorbed to 2 mg of Al(OH)3 (Alu Gel S; 2% Al(OH)3, Serva, Heidelberg, FRG) and diluted with saline to a volume of 0.2 ml or various amounts (1, 3, 10, 30, or 90 μg per mouse) of alum-precipitated OVA323-339 peptide (98% purity, piChem R&D, Graz Austria) in 0.2 ml on days 0 and 14. Before and at different time points on days 0 and 14 after the OVA or OVA323-339 peptide administration about 200 μl of blood are collected by puncture of the retro-orbital plexus under ether anesthesia.
The sera are collected and stored frozen at −20° C. until analyzed. […]
Murine IL-2, IFN-γ and IL-4 are analyzed by immunoassays (Quantikine R&D Systems, Minneapolis, Minn., USA). Results are expressed as pg per ml serum expressed as mean±SEM pg of the cytokine indicated per ml serum. Test and control groups are evaluated by Dunn test by Kruskall-Wallis One Way Anova using the SigmaStat® program. […]
Mice of the control group are injected with alum. Blood is collected before and at 2, 4, and 6 hours after the first peptide injection. INF-γ is determined in the sera by an ELISA. Results are expressed as mean pg per ml serum±SEM. […]

Splenocytes of OT-1 mice [3] = experiment: Cytokine production assay, OT-1 splenocytes; assay type: cell-based, mouse; conditions: high amounts of OVA protein
Protocol: Cells are stimulated as described above and supernatant is harvested after 48 hours. The quantity of cytokines released by T cells into the culture medium after antigen stimulation is assayed by conventional sandwich ELISA. Microtiter plates (Nunc-Immunoplate™) are coated with the cytokine-specific capture antibodies JES6-1A12 (anti-IL-2), 11B11 (anti-IL-4), TRFK5 (anti-IL-5), JES5-2A5 (anti-IL-10) or R4-6A2 (anti-IFN-γ) at 4° overnight. Supernatants are incubated on the coated plates for 2 hours. Specifically bound cytokines are quantified using biotinylated secondary antibodies JES6-5H4 (anti-IL-2), BVD6-24G2 (anti-IL-4), TRFK4 (anti-IL-5), SXC-1 (anti-IL-10) and XMG1.2 (anti-IFN-γ) followed by extravidin peroxidase and TMB substrate (both from Sigma). Absorption is measured at 450 and 690 nm on a Spectramax 340PC reader (Molecular Devices, Sunnyvale, Calif.). All cytokines are quantified with standard curves obtained with known amounts of recombinant mouse cytokines using SoftMax 3 software. All mAbs and recombinant mouse cytokine standards are purchased from BD PharMingen, Heidelberg, Germany.

Splenocytes of OT-1 mice [4] = experiment: T cell proliferation assay, OT-1 splenocytes; assay type: cell-based, mouse; conditions: high amounts of OVA protein
Protocol: Splenocytes (4×10^5 cells/well) of OT-1 mice are stimulated in 200 μl final volume in 96-well flat bottomed plates with titrated amounts of OVA or OVA257-264 peptide at 37°. As medium RPMI 1640 supplemented with 10% FCS, 2.0 g/l NaHCO3, 2 mM L-glutamin, 100 IU/ml penicillin, 100 μg/ml streptomycin and 5×10^−5 M β-mercaptoethanol (Sigma, Vienna, Austria) is used. After 48 hours, cells are pulsed with 0.5 μCi ^3H-thymidine for 8 hours and the incorporated radioactivity is measured on a liquid scintillation β-counter (Trilux, 1450 Microbeta, Wallac, Turku, Finland).

[5] = peptide-induced activation in OT-1 mice

In the case of “OVA257-264: peptide derived from chicken ovalbumin containing amino acids from position 257 to 264”, the “maximal up-regulation of CD69” value (CD69 on CD8+ T cells; 100 μg OVA257-264, after 3 hours) is reported as “ca. 155 fold increase”, the “time of early peak of serum IL-2” value (IL-2; [5]) is reported as 4 h and the “minimal amount required to induce significant serum quantities of IL-2” value (IL-2; per animal, i.p., 4 hours) is reported as 30 µg. For the same molecule, the “time of early peak of serum IFN-γ” value (IFN-γ [1]; [5]) was 4 h, the “minimal amount required to induce significant serum quantities of IFN-γ” value (IFN-γ [1]; per animal, i.p., 4 hours) was 30 µg and the “maximal up-regulation of CD25” value (CD25 on CD8+ T cells) was “ca. 40 fold increase”. The “change of CD8+ T cells in the spleen” value (CD8+ T cells; 100 μg OVA257-264 i.p.) was “no significant decrease” and the “frequency of CD8+ expressing cells among the lymphocyte population in the blood” value (CD8+ T cells; 100 μg OVA257-264 i.p., within 3 hours, from around 30%) was “less than 2.5%”.

For “p/p: 10 μg OVA323-339 peptide/10 μg OVA323-339 peptide i.p. on days 0 and 14 (KISQAVHAAHAEINEAG; UniProt P01012 323-339, looked up, fragment)”, the “IFN-γ level in pg/ml serum after day 0” value (IFN-γ [2]) was 483.215 ± 134.641 pg/mL and the “IFN-γ level in pg/ml serum after day 14” value (IFN-γ [2]) was 554.136 ± 110.652 pg/mL.

B1: OVA: chicken ovalbumin (protein, UniProt P01012 2-386, looked up)
Ovalbumin: GSIGAASMEFCFDVFKELKVHHANENIFYCPIAIMSALAMVYLGAKDSTRTQINKVVRFDKLPGFGDSIEAQCGTSVNVHSSLRDILNQITKPNDVYSFSLASRLYAEERYPILPEYLQCVKELYRGGLEPINFQTAADQARELINSWVESQTNGIIRNVLQPSSVDSQTAMVLVNAIVFKGLWEKAFKDEDTQAMPFRVTEQESKPVQMMYQIGLFRVASMASEKMKILELPFASGTMSMLVLLPDEVSGLEQLESIINFEKLTEWTSSNVMEERKIKVYLPRMKMEEKYNLTSVLMAMGITDVFSSSANLSGISSAESLKISQAVHAAHAEINEAGREVVGSAEAGVDAASVSEEFRADHPFLFCIKHIATNAVLFFGRCVSP
B1 was tested, and the “increase of CD69 expression in the spleen” value (CD69 on CD8+ T cells; 1 mg OVA i.p., late (7-24 hours)) was no more than 2.5 fold, the “cytokine release of OT-1 splenocytes in vitro” value (Splenocytes of OT-1 mice [3]) was “cytokine release” and the “proliferation of OT-1 splenocytes in vitro” value (Splenocytes of OT-1 mice [4]) was “induce proliferation”. The “serum INF-γ levels after challenge with OVA-protein” value (IFN-γ [2]; given amount (10 μg) of OVA-protein) was “under the detection limit”, the “INF-γ levels after second OVA exposure versus before” value (IFN-γ [2]; primary OVA, second OVA exposure 2 weeks later) was “fail to increase” and the “serum INF-γ levels versus alum alone” value (IFN-γ [2]; primary sensitization with 10 μg of OVA) was “does not change”. The “frequency of CD8+ T cells in both spleen and blood” value (CD8+ T cells; 1 mg OVA i.p., over 48 hours) was “declines marginally”.

B2: o/o: 10 μg OVA/10 μg OVA i.p. on days 0 and 14 (protein, UniProt P01012 2-386, looked up)
Ovalbumin: B1 Ovalbumin
B2 was tested, and the “IFN-γ level in pg/ml serum after day 0” value (IFN-γ [2]) was 3.788 ± 1.495 pg/mL and the “IFN-γ level in pg/ml serum after day 14” value (IFN-γ [2]) was 6.796 ± 6.189 pg/mL.
